Patent publication US12485147B2, “Method for producing cell mass including pituitary tissue, and cell mass thereof” (SUMITOMO CHEMICAL COMPANY, LIMITED, priority 2017, dated 2025)

What was measured:
Format in all cases: cell-based
[1] = tested on: Human ES cells (KhES-1 strain); experiment: Addition conditions of Wnt signal transduction pathway inhibiting substance in production of cell mass containing pituitary tissue; bright field observation; settings: day 28; for nonneural epithelial structure on surface of cell mass: IWP-2 2 μM, KY02111 5 μM, C-59 500 nM, LGK974 5 μM, XAV939 1 μM, IWR1-endo 1 μM added at start, with SB-431542, BMP4, SAG; for size and condition of cell mass: 2 μM IWP-2, 5 μM KY02111, 1 μM XAV939, 1 μM IWR1e
Procedure: (§1) Human ES cells (KhES-1 strain) were cultured under feeder-free conditions according to the method described in Scientific Reports, 4, 3594 (2014). As the feeder-free medium, StemFit medium was used and, as the feeder-free scaffold, Laminin 511-E8 was used.
(§2) Specific maintenance culturing operation was performed in the same manner as in Example 1.
Thereafter, suspension culturing in a 96 well plate was performed under conditions similar to those in Example 1 except that the kind or the presence or absence of the Wnt signal transduction pathway inhibiting substance to be added at the start of suspension culturing was changed. As the Wnt signal transduction pathway inhibiting substances, IWP-2, C-59 (manufactured by Cayman Chemicals, 500 nM), LGK974 (manufactured by Cayman Chemicals, 5 μM) which are PORCN inhibitors; XAV939 (manufactured by Cayman Chemicals, 1 μM), IWR1-endo (manufactured by Merck Millipore, 1 μM) which are TANK inhibitors, and KY02111 (manufactured by Cayman Chemicals, 5 μM) whose action mechanism has not been reported were added at the start of the suspension culturing, and the condition with the addition of DMSO alone as a control of no addition of a Wnt signal transduction pathway inhibiting substance was performed.
A serum-free medium not containing Y27632 and containing each Wnt signal transduction pathway inhibiting substance, SB-431542, BMP4, and SAG was added at 100 μl per well on day 2 from the start of suspension culturing. BMP4 was added at 3 nM to the medium so that the final concentration in the well would be 1.5 nM, and SAG was added at 4 μM to the medium so that the final concentration in the well would be 2 μM.
A half amount of the medium was changed with a serum-free medium not containing Y27632 or BMP4 and containing each Wnt signal transduction pathway inhibiting substance, SB-431542 and SAG on days 6, 10, 13, 17, 21, 24 from the start of suspension culturing. In addition to the above-mentioned conditions, the condition in which neither SB431542 nor a Wnt signal transduction pathway inhibiting substance is added during suspension culturing was also performed.
Bright field observation was performed using an inverted microscope (manufactured by KEYENCE CORPORATION, BIOREVO) on day 28 from the start of suspension culturing (FIGS. 7A-H).

[2] = tested on: Human iPS cells (HC-6 #10 strain); experiment: Cell mass from human iPS cells using Wnt signal transduction pathway activating substance (CHIR99021) and inhibiting substance in combination; bright field observation and immunostaining
Procedure: Human iPS cells (HC-6 #10 strain, obtained from RIKEN) were cultured under feeder-free conditions according to the method described in Scientific Reports, 4, 3594 (2014). As the feeder-free medium, StemFit medium was used and, as the feeder-free scaffold, Laminin 511-E8 was used. Specific maintenance culturing operation was performed in the same manner as in Example 1. The thus-prepared subconfluent human iPS cells were washed with PBS, subjected to an enzyme treatment using Accumax, a serum-free medium for differentiation induction was added, and the cells were scraped from the surface of the culture dish by using a cell scraper and dispersed into single cells by pipetting. Thereafter, the aforementioned human ES cells dispersed into single cells were suspended in 100 μl of a serum-free medium at 9×10^3 cells per well of a non-cell-adhesive 96-well culture plate (PrimeSurface […]-bottom plate, manufactured by SUMITOMO BAKELITE), and cultured in suspension under the conditions of 37° C., 5% CO2. As the serum-free medium ([…]) therefor, a serum-free medium which is a 1:1 mixture of F-12+Glutamax medium (manufactured by Thermo Fisher Scientific) and IMDM+Glutamax medium (manufactured by Thermo Fisher Scientific) supplemented with 5% Knockout Serum Replacement (manufactured by Thermo Fisher Scientific), 450 μM 1-monothioglycerol (manufactured by Wako Pure Chemical Industries, Ltd.), 1× Chemically defined lipid concentrate (manufactured by Thermo Fisher Scientific), 50 unit/ml penicillin-50 μg/ml streptomycin (manufactured by Nacalai Tesque) was used. At the time of the start of suspension culturing (day 0 from the start of suspension culturing, start of step 1), Y27632 (final concentration 20 μM), SB-431542 (TGFβ signal transduction pathway inhibiting substance, manufactured by Wako Pure Chemical Industries, Ltd., 1 μM), and IWP-2 (Wnt signal transduction pathway inhibiting substance, manufactured by Tocris Bioscience, 2 μM) were added to the aforementioned serum-free medium. In addition, conditions in which CHIR99021 (manufactured by Cayman Chemical) is added at 300 nM, 1 μM, 3 μM as a Wnt signal transduction pathway activating substance, and conditions in which DMSO alone is added as a control of no addition were set, totaling in 4 conditions. In the present Example, CHIR99021 is sometimes referred to as CHIR. A serum-free medium not containing Y27632 and containing SB-431542, IWP-2, BMP4 (BMP signal transduction pathway activating substance) and CHIR99021 under each condition set was added at 100 μl per well on day 2 from the start of suspension culturing. BMP4 was added at 3 nM to the medium so that the final concentration in the well would be 1.5 nM. As a method for inducing cell mass containing nonneural epithelium and placode, a half amount of the medium was changed with a serum-free medium not containing Y27632 or BMP4, and containing IWP-2, SB-431542, K02288 (BMP signal transduction pathway inhibiting substance, manufactured by AdooQ Bioscience), FGF2-TS (FGF signal transduction pathway activating substance, manufactured by HumanZyme) and Heparin Sodium (manufactured by FUJIFILM Wako Pure Chemical Corporation) on day 3 from the start of suspension culturing. K02288, FGF2, and Heparin Sodium were respectively added at 2 μM, 40 ng/ml, and 20 μg/ml to the medium so that the final concentration in the well would be respectively 1 μM, 20 ng/ml, and 10 μg/ml. A half amount of the medium was changed on day 6 and day 10 from the start of suspension culturing. On day 13 from the start of suspension culturing, bright field observation was performed under an inverted microscope (FIGS. 11A-D). […] The above-mentioned cell masses on day 13 of the culturing were fixed by a method similar to that in Example 1 to prepare cryosections. […]

[3] = tested on: Human ES cells (KhES-1 strain); experiment: TGFβ signal transduction pathway inhibitory conditions in production of cell mass containing pituitary tissue; settings: IWP-2 added, no TGFβ signal transduction pathway inhibiting substance; day 28
Procedure: as §1, §2
Thereafter, suspension culturing in a 96 well plate was performed under conditions similar to those in Example 1 except that the concentration and kind of the TGFβ signal transduction pathway inhibiting substance to be added at the start of the suspension culturing are changed. As the TGFβ signal transduction pathway inhibiting substance therefor, SB431542 (1 or 10 μM), A 83-01 (manufactured by Cayman Chemicals, 1 or 10 μM), and RepSox (manufactured by Cayman Chemicals, 1 μM) were added at respective concentration conditions.
Thereafter, a serum-free medium not containing Y27632 and containing IWP-2, each TGFβ signal transduction pathway inhibiting substance, BMP4, and SAG was added at 100 μl per well on day 2 from the start of suspension culturing. BMP4 was added at 3 nM to the medium so that the final concentration in the well would be 1.5 nM, and SAG was added at 4 μM to the medium so that the final concentration in the well would be 2 μM.
A half amount of the medium was changed with a serum-free medium not containing Y27632 or BMP4 and containing IWP-2, each TGFβ signal transduction pathway inhibiting substance, and SAG on days 6, 10, 13, 17, 21, 24 from the start of suspension culturing. In addition to the above-mentioned conditions, the condition in which neither a TGFβ signal transduction pathway inhibiting substance nor IWP-2 is added during suspension culturing, and the condition in which IWP-2 is added and a TGFβ signal transduction pathway inhibiting substance is not added during suspension culturing were also performed.

[4] = tested on: Human ES cells (KhES-1 strain); experiment: Effect of compound treatment before differentiation induction in production of cell mass containing pituitary tissue; bright field observation; settings: pre-treatment with 5 μM SB-431542 alone; day 28
Procedure: Human ES cells (KhES-1 strain) were cultured under feeder-free conditions according to the method described in Scientific Reports, 4, 3594 (2014). As the feeder-free medium, StemFit medium was used and, as the feeder-free scaffold, Laminin 511-E8 was used. Specific maintenance culturing operation was performed in the same manner as in Example 1. As a pre-treatment for differentiation induction of the cultured cells, cells under 4 conditions were maintenance cultured under conditions in which, condition in which nothing is simultaneously added with medium change with […] medium (Control), conditions in which 300 nM SAG alone is added (+300 nM SAG), conditions in which 5 μM SB-431542 alone is added (+5 μM SB-431542), and conditions in which SAG and SB431542 are simultaneously added (+SAG/SB) at 6 days after seeding. The next day of the above-mentioned treatment, human ES cells under 4 conditions that reached subconfluence were each subjected to differentiation induction by suspension culturing into a cell mass containing pituitary tissue according to the method described in Example 1. Bright field observation was performed under an inverted microscope on day 28 from the start of suspension culturing (FIGS. 6A-D).

[5] = 300 nM CHIR vs no addition, day 13

Cc1cc(-c2ccc(CC(=O)Nc3ccc(-c4cccnc4)cc3)cc2)ccn1 [C59]
nonneural epithelial structure on surface of cell mass [1]: cell masses having a nonneural epithelial structure on the surface were formed

Cc1c[nH]c(-c2cnc(NCCNc3ccc(C#N)cn3)nc2-c2ccc(Cl)cc2Cl)n1 [CHIR99021]
neural tissue in the inside [2, 5]: survival of neural tissue in the inside and epithelial formation were promoted
size of cell mass [2, 5]: larger cell masses were formed
marker-positive tissue formation (immunostaining) ([2]; 300 nM, 1 μM CHIR (also no addition), day 13): formation of Dlx5, Six1, E-Cadherin, N-Cadherin positive nonneural epithelium or placode precursor tissue
nonneural epithelium thickening and placode formation ([2]; 1 μM CHIR, day 13): thickening of nonneural epithelium on the outside and formation of placode were suppressed
formation of nonneural epithelial tissue on surface (bright field) ([2]; 3 μM CHIR99021, day 13): formation of nonneural epithelial tissue on the surface of cell mass is inhibited
formation of nonneural epithelium (immunostaining) ([2]; 3 μM CHIR, day 13): Formation of nonneural epithelium was not observed
growth of cell masses (bright field) ([2]; CHIR99021 300 nM, 1 μM, 3 μM in presence of IWP-2, day 13): cell masses grow in a concentration-dependent manner
level effective for growth of whole cell masses, survival of neural tissue in the inside and promotion of epithelial formation ([2]; in the presence of IWP-2): not more than 3 μM

Cc1ccc2nc(NC(=O)CSc3nc4c(c(=O)n3-c3ccccc3)SCC4)sc2c1 [IWP-2]
mesenchymal cell between outer nonneural epithelial tissue and inner neuroepithelial tissue [3]: a mesenchymal cell could not be confirmed
nonneural epithelial structure on surface of cell mass [3]: a nonneural epithelial structure was formed on the surface of the cell mass
size of cell mass [3]: the formed cell mass was small
size and condition of cell mass [1]: large cell masses in good condition were formed
nonneural epithelial structure on surface of cell mass [1]: cell masses having a nonneural epithelial structure on the surface were formed

O=C(Nc1cccc2cccnc12)c1ccc(N2C(=O)[C@@H]3[C@H](C2=O)[C@@H]2C=C[C@H]3C2)cc1 [IWR1-endo]
size and condition of cell mass [1]: large cell masses in good condition were formed
nonneural epithelial structure on surface of cell mass [1]: cell masses having a nonneural epithelial structure on the surface were formed

COc1ccc(CCC(=O)Nc2nc3ccc(Cl)cc3s2)cc1OC [KY02111]
size and condition of cell mass [1]: large cell masses in good condition were formed
nonneural epithelial structure on surface of cell mass [1]: cell masses having a nonneural epithelial structure on the surface were formed

Cc1cc(-c2ncc(CC(=O)Nc3ccc(-c4cnccn4)cn3)cc2C)ccn1 [LGK974]
nonneural epithelial structure on surface of cell mass [1]: cell masses having a nonneural epithelial structure on the surface were formed

NC(=O)c1ccc(-c2nc(-c3ccc4c(c3)OCO4)c(-c3ccccn3)[nH]2)cc1 [SB431542, 4-(5-benzol[1,3]dioxol-5-yl-4-pyridin-2-yl-1H-imidazol-2-yl)-benzamide]
cell mass formation [4]: larger cell masses containing pituitary tissues were formed
nonneural epithelial tissue on surface of cell mass ([1]; SB431542 added, no Wnt signal transduction pathway inhibiting substance): nonneural epithelial tissue was not formed on the surface of the cell masses

Oc1nc(-c2ccc(C(F)(F)F)cc2)nc2c1CSCC2 [XAV939]
size and condition of cell mass [1]: large cell masses in good condition were formed
nonneural epithelial structure on surface of cell mass [1]: cell masses having a nonneural epithelial structure on the surface were formed
